Experimental data taken from patent publication US20030104603A1, “Protein” (priority 2001, published 2003).

Test system: mouse EST cluster TC20248 (CitE homolog gene) in white adipose tissue
Experiment: Affymetrix GeneChip analysis of white adipose tissue mRNA from β3-agonist treated mice
Format: in vivo
Details: male C57B1/6J mice, CL 316,243 1 mg/kg injected every 12 h, 2 doses, white adipose tissue collected at 24 h, versus saline control, Mu19K GeneChips
Protocol: Male C57B1/6J mice, 12 weeks old, were housed under conditions of ambient temperature and free access to water and chow. Either the β3-selective agonist CL 316,243 (1mg/kg) or saline was injected every 12h with 2 doses during a total period of 24 hours. The animals were decapitated 24 h after the experiment was started, and the white adipose tissue was quickly collected and immediately frozen into liquid nitrogen.
PolyA^+ mRNAs were extracted from white adipose tissue from control and β3-agonist treated mice respectively. They were reverse transcribed using a T7-tagged oligo-dT primer and double-stranded cDNAs were generated. These cDNAs were then amplified and labeled using In vitro transcription (IVT) with T7 RNA polymerase and biotinylated nucleotides. The populations of cRNAs obtained after IVT were purified and fragmented by heat to produce a distribution of RNA fragment sizes from approximately 35 to 200 bases. […] The cartridges were scanned using a Hewlett-Packard confocal scanner and the images were analyzed with the GeneChip 3.1 software (Affymetrix). The identity of the genes represented on the Affymetrix GeneChips was assessed by performing searches using BLAST (Altschul et al., J. Molec. Biol., 1990, 215, 403-410), which is incorporated herein by reference in its entirety) on available protein sequence databanks. […]

In the case of `C[C@H](Cc1ccc2c(c1)OC(C(=O)[O-])(C(=O)[O-])O2)NC[C@H](O)c1cccc(Cl)c1.[Na+].[Na+]` [CL 316,243], the “transcriptional change of the CitE homolog gene (TIGR Mouse Gene Index TC20248)” value is reported as “down-regulated” and the “transcriptional change of the CitE homolog gene (TIGR Mouse Gene Index TC20248)” value (listed as β3-agonist) is reported as “downregulated by a factor of two”.
